Test results reported in ChEMBL document CHEMBL5365461, “Degradation of Cyclin-Dependent Kinase 9/Cyclin T1 by Optimized Microtubule-Associated Protein 1 Light Chain 3 Beta-Recruiting Coumarin Analogs” (J Med Chem, 2023).
Activity calls are given as the source filed them. No cut-off for these calls is given here.

Legend:
[1] = Oral bioavailability in CD-1 mouse at 5 mg/kg measured after 24 hrs by LC-MS/MS analysis; assay type: ADME, organism-based; settings: in vivo
[2] = biological target: Cyclin-dependent kinase 9 (Homo sapiens) (UniProt P50750); assay: Induction of CDK9 42 kDa degradation in human U2932 cells at 500 nM incubated for 12 hrs in presence of BafA1 by immunoblotting analysis; assay type: cell-based
Sequence of Cyclin-dependent kinase 9 (Homo sapiens) (P50750 whole entry, the tested form may be a part): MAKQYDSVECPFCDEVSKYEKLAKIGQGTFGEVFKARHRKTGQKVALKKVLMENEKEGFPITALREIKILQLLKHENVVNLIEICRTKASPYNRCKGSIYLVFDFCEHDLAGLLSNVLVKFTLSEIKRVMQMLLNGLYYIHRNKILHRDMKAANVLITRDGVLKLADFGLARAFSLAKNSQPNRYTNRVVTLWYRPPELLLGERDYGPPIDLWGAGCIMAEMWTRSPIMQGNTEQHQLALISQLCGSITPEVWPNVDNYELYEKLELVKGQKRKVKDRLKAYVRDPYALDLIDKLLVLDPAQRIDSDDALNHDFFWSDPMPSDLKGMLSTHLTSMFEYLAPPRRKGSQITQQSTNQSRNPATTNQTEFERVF

MV4-11 [3] = assay: Induction of apoptosis in human MV4-11 cells at 1000 nM incubated for 24 hrs by AnnexinV-FITC/PI staining based flow cytometry analysis; assay type: functional, cell-based
[4] = biological target: Cyclin-dependent kinase 9 (Homo sapiens) (UniProt P50750); assay: Induction of CDK9 55 kDa degradation in human U2932 cells at 500 nM incubated for 12 hrs in presence of HCQ by immunoblotting analysis; assay type: cell-based
[5] = Cmax in CD-1 mouse at 5 mg/kg, ip measured after 24 hrs by LC-MS/MS analysis; assay type: ADME, organism-based; design: dose 5 mg/kg, time 24 hrs, route ip; settings: in vivo
[6] = Half life in CD-1 mouse at 5 mg/kg, ip measured after 24 hrs by LC-MS/MS analysis; assay type: ADME, organism-based; settings: in vivo
[7] = biological target: Cyclin-dependent kinase 9 (Homo sapiens) (UniProt P50750); assay: Induction of CDK9 42 kDa degradation in human U2932 cells at 500 nM incubated for 12 hrs in presence of BafA1 by Co-immunoprecipitation analysis; assay type: cell-based
MV4-11 [8] = assay: Downregulation of Mcl-1 protein level in human MV4-11 cells incubated for 6 hrs by RT-qPCR analysis; assay type: functional, cell-based; settings: dose 10-1000 nM
MV4-11 [9] = assay: Downregulation of c-Myc protein level in human MV4-11 cells incubated for 6 hrs by RT-qPCR analysis; assay type: functional, cell-based; settings: dose 10-1000 nM
U2932 [10] = assay: Downregulation of Mcl-1 protein level in human U2932 cells incubated for 6 hrs by RT-qPCR analysis; assay type: functional, cell-based; settings: dose 10-1000 nM
[11] = AUC(0 to t) in CD-1 mouse at 1 mg/kg, iv measured after 24 hrs by LC-MS/MS analysis; assay type: ADME, organism-based; design: time 24 hrs, dose 1 mg/kg, route iv; settings: in vivo
[12] = AUC(0 to t) in CD-1 mouse at 5 mg/kg, ip measured after 24 hrs by LC-MS/MS analysis; assay type: ADME, organism-based; design: dose 5 mg/kg, time 24 hrs, route ip; settings: in vivo
[13] = biological target: Cyclin-dependent kinase 9 (Homo sapiens) (UniProt P50750); assay: Induction of CDK9 55 kDa degradation in human U2932 cells at 500 nM incubated for 12 hrs in presence of SNS-032 by immunoblotting analysis; assay type: cell-based
[14] = Half life in CD-1 mouse at 1 mg/kg, iv measured after 24 hrs by LC-MS/MS analysis; assay type: ADME, organism-based; settings: in vivo
[15] = Volume of distribution at steady state in CD-1 mouse at 1 mg/kg, iv measured after 24 hrs by LC-MS/MS analysis; assay type: ADME, organism-based; settings: in vivo, read-out: Vdss
[16] = biological target: Cyclin-dependent kinase 9 (Homo sapiens) (UniProt P50750); assay: Induction of CDK9 42 kDa degradation in human U2932 cells assessed as maximal efficacy at 1 to 1000 nM by immunoblotting analysis relative to control; assay type: cell-based; settings: dose 1-1000 nM
[17] = biological target: Cyclin-dependent kinase 9 (Homo sapiens) (UniProt P50750); assay: Induction of CDK9 42 kDa degradation in human U2932 cells at 500 nM incubated for 12 hrs in presence of HCQ by immunoblotting analysis; assay type: cell-based
[18] = biological target: Cyclin-dependent kinase 9 (Homo sapiens) (UniProt P50750); assay: Induction of CDK9 55 kDa degradation in human U2932 cells assessed as maximal efficacy at 1 to 1000 nM by immunoblotting analysis relative to control; assay type: cell-based; settings: dose 1-1000 nM
[19] = biological target: Cyclin-dependent kinase 9 (Homo sapiens) (UniProt P50750); assay: Inhibition of GST-fused human full-length CDK9 (1 to 372(end) residues)/N-terminal GST-fused His-tagged human full-length CyclinT1 (1 to 726(end) residues) expressed in baculovirus expression system at 10 nM using CDK7/9 tide as substrate incubated for 120 mins in presence of ATP by ADP-Glo Kinase assay relative to control
U2932 [20] = assay: Induction of apoptosis in human U2932 cells assessed as viable cells at 1000 nM incubated for 24 hrs by AnnexinV-FITC/PI staining based flow cytometry analysis (reference value: 86.9%); assay type: functional; settings: read-out: Activity
HCT-116 = assay: Cytotoxicity against human HCT-116 cells assessed as inhibition of cell growth measured after 72 hrs by CCK-8 assay; assay type: functional, cell-based
[21] = biological target: Cyclin-dependent kinase 9 (Homo sapiens) (UniProt P50750); assay: Induction of CDK9 55 kDa degradation in human U2932 cells at 100 nM by immunoblotting analysis; assay type: cell-based; settings: time 1-24 hrs, TDE = time-dependent effect
U2932 [22] = assay: Downregulation of c-Myc protein level in human U2932 cells incubated for 6 hrs by RT-qPCR analysis; assay type: functional, cell-based; settings: dose 10-1000 nM
U2932 [23] = assay: Downregulation of RNAP2 phosphorylation at serine 2 residue in human U2932 cells at 10 to 1000 nM incubated for 6 hrs by immunoblotting analysis; assay type: functional, cell-based; settings: dose 10-1000 nM
[24] = Observed MRTinfinity in CD-1 mouse at 5 mg/kg, ip measured after 24 hrs by LC-MS/MS analysis; assay type: ADME, organism-based; settings: in vivo
U2932 [25] = assay: Cytotoxicity against human U2932 cells assessed as inhibition of cell growth measured after 72 hrs by CCK-8 assay; assay type: functional, cell-based; settings: U2932, 72 h
A2780 = assay: Cytotoxicity against human A2780 cells assessed as inhibition of cell growth measured after 72 hrs by CCK-8 assay; assay type: functional, cell-based
[26] = Observed clearance in CD-1 mouse at 1 mg/kg, iv measured after 24 hrs by LC-MS/MS analysis; assay type: ADME, organism-based; settings: in vivo
U2932 [27] = assay: Induction of apoptosis in human U2932 cells assessed as early apoptotic cells at 1000 nM incubated for 24 hrs by AnnexinV-FITC/PI staining based flow cytometry analysis (reference value: 6.20%); assay type: functional
U2932 [28] = assay: Induction of apoptosis in human U2932 cells assessed as necrotic cells at 1000 nM incubated for 24 hrs by AnnexinV-FITC/PI staining based flow cytometry analysis (reference value: 0.92%); assay type: functional
[29] = biological target: Cyclin-dependent kinase 9 (Homo sapiens) (UniProt P50750); assay: Induction of CDK9 55 kDa degradation in human U2932 cells at 500 nM incubated for 12 hrs in presence of 5,7-Dihydroxy-4-methylcoumarin by immunoblotting analysis; assay type: cell-based
[30] = biological target: Cyclin-dependent kinase 9 (Homo sapiens) (UniProt P50750); assay: Inhibition of GST-fused human full-length CDK9 (1 to 372(end) residues)/N-terminal GST-fused His-tagged human full-length CyclinT1 (1 to 726(end) residues) expressed in baculovirus expression system at 100 nM using CDK7/9 tide as substrate incubated for 120 mins in presence of ATP by ADP-Glo Kinase assay relative to control
[31] = Observed MRTinfinity in CD-1 mouse at 1 mg/kg, iv measured after 24 hrs by LC-MS/MS analysis; assay type: ADME, organism-based; settings: in vivo
[32] = biological target: Cyclin-dependent kinase 9 (Homo sapiens) (UniProt P50750); assay: Induction of CDK9 42 kDa degradation in human U2932 cells at 500 nM incubated for 12 hrs in presence of SNS-032 by immunoblotting analysis; assay type: cell-based
[33] = biological target: Cyclin-dependent kinase 9 (Homo sapiens) (UniProt P50750); assay: Induction of CDK9 55 kDa degradation in human U2932 cells at 500 nM incubated for 12 hrs in presence of BafA1 by immunoblotting analysis; assay type: cell-based
[34] = biological target: Cyclin-dependent kinase 9 (Homo sapiens) (UniProt P50750); assay: Induction of CDK9 55 kDa degradation in human U2932 cells at 500 nM incubated for 12 hrs in presence of MLN4924 by immunoblotting analysis; assay type: cell-based
[35] = biological target: Cyclin-dependent kinase 9 (Homo sapiens) (UniProt P50750); assay: Induction of CDK9 55 kDa degradation in human U2932 cells by immunoblotting analysis; assay type: cell-based; settings: dose 1-1000 nM
[36] = biological target: Cyclin-dependent kinase 9 (Homo sapiens) (UniProt P50750); assay: Induction of CDK9 55 kDa degradation in human U2932 cells at 500 nM incubated for 12 hrs in presence of MG132 by immunoblotting analysis; assay type: cell-based

Compound	bioavailability [1] [%]	Activity [2]	Activity (MV4-11 [3])	Activity [4]	Cmax [5] [ng/mL]	half-life [6] [h]	Activity [7]	Activity (MV4-11 [8])	Activity (MV4-11 [9])	Activity (U2932 [10])	AUC(0-t) at 24 h [11] [ng·h/mL]	AUC(0-t) at 24 h [12] [ng·h/mL]	Activity [13]	half-life [14] [h]	Vd [15] [L/kg]	Emax [16] [%]	Activity [17]	Emax [18] [%]	inhibition [19] [%]	viability at 1 µM (U2932 [20]) [%]	also measured
Cc1cc(=O)oc2cc(OCCCN3CCC(C(=O)Nc4ncc(SCc5ncc(C(C)(C)C)o5)s4)CC3)cc(O)c12	24.6	inactive	Active	inactive	88.6	3.61	Active	Dose-Dependent Effect	Dose-Dependent Effect	Active	116	143	inactive	1.03	5.7	49.9	inactive	46	1	47.4	Activity (HCT-116): Active; Activity [21]: Tde; Activity (U2932 [22]): Active; Activity (U2932 [23]): Active; MRT inf [24]: 3.84 h; IC50 (U2932 [25]): 45 nM; Activity (A2780): Active; clearance [26]: 140 mL/min/kg; Activity (U2932 [27]): 11.8%; Activity (U2932 [28]): 2.08%; Activity [29]: inactive; inhibition [30]: 65%; MRT inf [31]: 0.674 h; Activity [32]: inactive; Activity [33]: inactive; Activity [34]: Active; Activity [35]: Dose-Dependent Effect; Activity [36]: Active
Cc1cc(=O)oc2cc(O)cc(OCCCCCN3CCC(C(=O)Nc4ncc(SCc5ncc(C(C)(C)C)o5)s4)CC3)c12	43.1	inactive	Active	inactive	88.4	4.66	Active	Dose-Dependent Effect	Dose-Dependent Effect	Active	72.3	156	inactive	1.97	10.5	59	inactive	54.8	1	41.8	Activity (HCT-116): Active; Activity [21]: Tde; Activity (U2932 [22]): Active; Activity (U2932 [23]): Active; MRT inf [24]: 4.17 h; IC50 (U2932 [25]): 45 nM; Activity (A2780): Active; clearance [26]: 229 mL/min/kg; Activity (U2932 [27]): 15.2%; Activity (U2932 [28]): 2.12%; Activity [29]: inactive; inhibition [30]: 54%; MRT inf [31]: 0.79 h; Activity [32]: inactive; Activity [33]: inactive; Activity [34]: Active; Activity [35]: Dose-Dependent Effect; Activity [36]: Active
